ChEMBL document CHEMBL4052762, “Synthesis and biological evaluation of pyrrole-based chalcones as CYP1 enzyme inhibitors, for possible prevention of cancer and overcoming cisplatin resistance” (Bioorg Med Chem Lett, 2017)

Experiments:
Cytochrome P450 1A1 = biological target: T1, Cytochrome P450 1A1 (Homo sapiens, UniProt P04798); test: Inhibition of human CYP1A1 bound to yeast microsomal membrane using 7-ethoxyresorufin as substrate after 10 mins by fluorescence assay
T1 sequence (P04798 whole entry): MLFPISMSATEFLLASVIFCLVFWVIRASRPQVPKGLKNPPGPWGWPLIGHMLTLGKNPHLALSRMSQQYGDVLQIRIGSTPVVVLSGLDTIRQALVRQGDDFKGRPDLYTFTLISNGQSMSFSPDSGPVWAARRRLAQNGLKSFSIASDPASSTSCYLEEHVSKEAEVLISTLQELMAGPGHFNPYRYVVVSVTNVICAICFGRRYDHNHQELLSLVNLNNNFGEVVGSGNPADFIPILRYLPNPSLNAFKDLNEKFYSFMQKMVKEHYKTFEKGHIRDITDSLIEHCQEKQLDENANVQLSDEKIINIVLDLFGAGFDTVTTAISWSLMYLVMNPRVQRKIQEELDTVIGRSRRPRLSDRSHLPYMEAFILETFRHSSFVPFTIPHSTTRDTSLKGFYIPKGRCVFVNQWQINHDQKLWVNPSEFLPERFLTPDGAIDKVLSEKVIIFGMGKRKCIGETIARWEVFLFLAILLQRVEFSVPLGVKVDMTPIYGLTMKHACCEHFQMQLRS

Cytochrome P450 1B1 = biological target: T2, Cytochrome P450 1B1 (Homo sapiens, UniProt Q16678); test: Inhibition of human CYP1B1 bound to yeast microsomal membrane using 7-ethoxyresorufin as substrate after 10 mins by fluorescence assay
T2 sequence (Q16678 whole entry): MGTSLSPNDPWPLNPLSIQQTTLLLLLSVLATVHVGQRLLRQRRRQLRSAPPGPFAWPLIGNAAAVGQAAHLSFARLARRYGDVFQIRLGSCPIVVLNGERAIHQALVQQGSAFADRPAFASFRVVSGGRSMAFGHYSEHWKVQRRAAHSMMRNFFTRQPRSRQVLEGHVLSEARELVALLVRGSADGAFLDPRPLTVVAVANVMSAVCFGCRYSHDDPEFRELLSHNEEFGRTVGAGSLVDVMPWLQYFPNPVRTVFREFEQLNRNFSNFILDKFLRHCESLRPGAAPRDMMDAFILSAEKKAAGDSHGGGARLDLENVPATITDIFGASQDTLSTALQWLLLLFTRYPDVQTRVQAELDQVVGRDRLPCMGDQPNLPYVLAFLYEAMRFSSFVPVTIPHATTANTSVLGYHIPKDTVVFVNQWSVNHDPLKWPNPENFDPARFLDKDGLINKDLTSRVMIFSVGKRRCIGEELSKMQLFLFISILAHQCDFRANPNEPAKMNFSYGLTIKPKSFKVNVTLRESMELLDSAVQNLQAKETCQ

Cytochrome P450 1A2 = biological target: T3, Cytochrome P450 1A2 (Homo sapiens, UniProt P05177); test: Inhibition of human CYP1A2 bound to yeast microsomal membrane using 3-cyano-7-ethoxycoumarin as substrate after 10 mins by fluorescence assay
T3 sequence (P05177 whole entry): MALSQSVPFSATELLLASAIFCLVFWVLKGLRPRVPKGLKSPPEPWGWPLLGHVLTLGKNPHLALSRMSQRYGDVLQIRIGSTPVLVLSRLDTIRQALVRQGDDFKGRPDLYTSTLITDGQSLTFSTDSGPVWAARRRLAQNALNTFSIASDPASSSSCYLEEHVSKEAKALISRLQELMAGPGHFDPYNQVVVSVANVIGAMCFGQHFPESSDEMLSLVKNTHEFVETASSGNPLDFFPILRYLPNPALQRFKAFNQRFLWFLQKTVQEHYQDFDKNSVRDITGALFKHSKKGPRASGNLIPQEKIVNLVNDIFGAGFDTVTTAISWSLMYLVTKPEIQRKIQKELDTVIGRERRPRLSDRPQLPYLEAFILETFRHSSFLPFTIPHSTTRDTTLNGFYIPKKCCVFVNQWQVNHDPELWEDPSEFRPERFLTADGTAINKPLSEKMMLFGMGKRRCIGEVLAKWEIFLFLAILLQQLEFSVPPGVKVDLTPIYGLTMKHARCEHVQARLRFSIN

Cytochrome P450 2D6 = Cytochrome P450 2D6 (Homo sapiens, UniProt P10635); test: Inhibition of human CYP2D6 bound to yeast microsomal membrane using 7-ethoxy-methyloxy-3-cyanocoumarin as substrate after 10 mins by fluorescence assay; type: ADME
Cytochrome P450 2C9 = Cytochrome P450 2C9 (Homo sapiens, UniProt P11712); test: Inhibition of human CYP2C9 bound to yeast microsomal membrane using 3-cyano-7-ethoxycoumarin as substrate after 10 mins by fluorescence assay; type: ADME
Cytochrome P450 2C19 = Cytochrome P450 2C19 (Homo sapiens, UniProt P33261); test: Inhibition of human CYP2C19 bound to yeast microsomal membrane using 3-cyano-7-ethoxycoumarin as substrate after 10 mins by fluorescence assay; type: ADME
Cytochrome P450 3A4 = Cytochrome P450 3A4 (Homo sapiens, UniProt P08684); test: Inhibition of human CYP3A4 bound to yeast microsomal membrane using dibenzylfluorescein as substrate after 10 mins by fluorescence assay; type: ADME
Chain of Cytochrome P450 3A4 (P08684 whole entry): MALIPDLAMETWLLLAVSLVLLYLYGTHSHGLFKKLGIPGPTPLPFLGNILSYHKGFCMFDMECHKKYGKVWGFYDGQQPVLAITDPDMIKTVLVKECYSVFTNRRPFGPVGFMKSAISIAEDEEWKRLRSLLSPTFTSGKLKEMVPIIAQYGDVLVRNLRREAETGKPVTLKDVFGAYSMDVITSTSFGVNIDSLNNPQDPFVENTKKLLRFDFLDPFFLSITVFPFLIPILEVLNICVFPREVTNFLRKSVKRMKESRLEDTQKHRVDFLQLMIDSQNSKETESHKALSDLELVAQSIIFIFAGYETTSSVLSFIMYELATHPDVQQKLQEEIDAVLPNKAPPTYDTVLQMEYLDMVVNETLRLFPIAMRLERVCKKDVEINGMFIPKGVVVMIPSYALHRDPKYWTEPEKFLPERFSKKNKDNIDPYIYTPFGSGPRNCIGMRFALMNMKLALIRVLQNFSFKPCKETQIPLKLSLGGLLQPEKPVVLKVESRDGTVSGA

Chain of Cytochrome P450 2C9 (P11712 whole entry): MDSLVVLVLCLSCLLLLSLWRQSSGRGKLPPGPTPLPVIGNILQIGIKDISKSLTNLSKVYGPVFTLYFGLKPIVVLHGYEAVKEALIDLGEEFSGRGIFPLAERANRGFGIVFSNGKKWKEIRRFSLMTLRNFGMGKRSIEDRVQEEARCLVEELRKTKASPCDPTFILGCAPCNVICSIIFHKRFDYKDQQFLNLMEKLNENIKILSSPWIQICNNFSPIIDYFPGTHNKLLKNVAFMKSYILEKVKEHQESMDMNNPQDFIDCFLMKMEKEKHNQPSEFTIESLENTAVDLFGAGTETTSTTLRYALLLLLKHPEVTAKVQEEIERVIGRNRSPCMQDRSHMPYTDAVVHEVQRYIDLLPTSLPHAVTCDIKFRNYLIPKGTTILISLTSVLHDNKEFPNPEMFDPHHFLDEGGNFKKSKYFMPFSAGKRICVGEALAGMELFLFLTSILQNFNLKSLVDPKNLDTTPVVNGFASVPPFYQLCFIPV
Chain of Cytochrome P450 2D6 (P10635 whole entry): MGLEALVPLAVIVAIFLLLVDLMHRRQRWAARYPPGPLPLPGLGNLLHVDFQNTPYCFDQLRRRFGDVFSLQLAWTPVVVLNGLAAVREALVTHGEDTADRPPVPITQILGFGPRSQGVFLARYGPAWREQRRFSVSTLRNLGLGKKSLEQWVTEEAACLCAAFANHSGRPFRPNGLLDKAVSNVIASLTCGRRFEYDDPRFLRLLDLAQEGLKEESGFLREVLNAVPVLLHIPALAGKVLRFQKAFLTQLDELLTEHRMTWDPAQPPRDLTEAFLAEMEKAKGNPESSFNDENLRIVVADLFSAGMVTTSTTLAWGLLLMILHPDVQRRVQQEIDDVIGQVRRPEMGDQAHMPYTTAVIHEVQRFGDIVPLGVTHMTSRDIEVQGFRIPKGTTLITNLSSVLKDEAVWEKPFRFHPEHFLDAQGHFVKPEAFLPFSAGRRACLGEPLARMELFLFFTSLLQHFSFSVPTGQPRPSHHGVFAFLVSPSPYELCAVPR
Chain of Cytochrome P450 2C19 (P33261 whole entry): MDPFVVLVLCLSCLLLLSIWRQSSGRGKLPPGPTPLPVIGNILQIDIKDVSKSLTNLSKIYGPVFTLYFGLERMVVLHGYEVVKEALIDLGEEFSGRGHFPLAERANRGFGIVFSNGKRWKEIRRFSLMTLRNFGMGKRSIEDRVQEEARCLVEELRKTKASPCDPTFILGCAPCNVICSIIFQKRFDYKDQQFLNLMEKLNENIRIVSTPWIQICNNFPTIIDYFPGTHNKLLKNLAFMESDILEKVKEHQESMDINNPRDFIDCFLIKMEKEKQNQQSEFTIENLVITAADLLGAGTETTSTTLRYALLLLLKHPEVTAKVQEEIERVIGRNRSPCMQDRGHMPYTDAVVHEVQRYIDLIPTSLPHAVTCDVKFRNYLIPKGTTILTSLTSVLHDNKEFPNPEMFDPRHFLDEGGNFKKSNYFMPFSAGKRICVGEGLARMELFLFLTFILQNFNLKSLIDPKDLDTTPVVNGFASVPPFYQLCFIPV

IC50 (Cytochrome P450 1A1) [µM] | IC50 (Cytochrome P450 1B1) [µM] | IC50 (Cytochrome P450 1A2) [µM] | IC50 (Cytochrome P450 2D6) [µM] | IC50 (Cytochrome P450 2C9) [µM] | IC50 (Cytochrome P450 2C19) [µM] | IC50 (Cytochrome P450 3A4) [µM] | Structure (SMILES)
6.1 | > 20 | 9 | 15 | > 20 | > 20 | > 20 | COc1cc(/C=C/C(=O)c2ccc[nH]2)cc(OC)c1
16 | 1.5 | 12 | 14 | > 20 | > 20 | > 20 | O=C(/C=C/c1cccc(Cl)c1)c1ccc[nH]1
> 20 | 2.7 | 2.2 | 16 | > 20 | > 20 | > 20 | O=C(/C=C/c1ccccc1F)c1ccc[nH]1
> 20 | 8.5 | 13.2 | 18 | > 20 | > 20 | > 20 | O=C(/C=C/c1ccc(Br)cc1)c1ccc[nH]1
> 20 | 9.2 | 2.5 | 17 | > 20 | > 20 | > 20 | CCc1ccc(/C=C/C(=O)c2ccc[nH]2)o1
11.8 | > 20 | 10 | 11 | > 20 | > 20 | > 20 | COc1ccc(/C=C/C(=O)c2ccc[nH]2)c(OC)c1
> 20 | > 20 | 17 | 13 | > 20 | > 20 | > 20 | COc1ccc(/C=C/C(=O)c2ccc[nH]2)cc1Br
> 20 | > 20 | 12.5 | 13 | > 20 | > 20 | > 20 | CN(C)c1ccc(/C=C/C(=O)c2ccc[nH]2)cc1
> 20 | > 20 | 13 | 18 | > 20 | > 20 | > 20 | COc1ccc(/C=C/C=C/C(=O)c2ccc[nH]2)cc1
> 20 | > 20 | > 20 | 18 | > 20 | > 20 | > 20 | O=C(O)c1ccc(/C=C/C(=O)c2ccc[nH]2)cc1
5.2 | > 20 | 9.2 | 16 | > 20 | > 20 | > 20 | COc1cccc(/C=C/C(=O)c2ccc[nH]2)c1OC
> 20 | > 20 | 10.9 | 12 | > 20 | > 20 | > 20 | O=C(/C=C/c1cc([N+](=O)[O-])ccc1Cl)c1ccc[nH]1
5.8 | > 20 | 9.7 | 14 | > 20 | > 20 | > 20 | O=C(/C=C/c1ccc2c(c1)OCO2)c1ccc[nH]1
> 20 | > 20 | 11.8 | 16 | > 20 | > 20 | > 20 | COc1ccc(/C=C/C(=O)c2ccc[nH]2)cc1
> 20 | > 20 | > 20 | 12 | > 20 | > 20 | > 20 | O=C(/C=C/c1c2ccccc2cc2ccccc12)c1ccc[nH]1
> 20 | 13 | > 20 | 14 | > 20 | > 20 | > 20 | O=C(/C=C/c1cccc(Br)c1)c1ccc[nH]1
6.2 | 5.2 | 1.5 | 11 | > 20 | > 20 | > 20 | COc1cccc(/C=C/C(=O)c2ccc[nH]2)c1
> 20 | > 20 | 15 | 14 | > 20 | > 20 | > 20 | COc1cc(/C=C/C(=O)c2ccc[nH]2)cc(OC)c1OC
10.8 | > 20 | 10 | 18 | > 20 | > 20 | > 20 | COc1cccc(OC)c1/C=C/C(=O)c1ccc[nH]1
> 20 | > 20 | 10.5 | 12 | > 20 | > 20 | > 20 | O=C(/C=C/C=C/c1ccccc1)c1ccc[nH]1
